# Reference: the supplement of paper PMC11208160
# Test: recombinant UMI read abundance after kanamycin selection (control-corrected) (log10(CPM+1)); higher = more efficient recombination; extreme values may be limits of the assay; sequences stand for … in AGTGCAGAGAAAATCGGCCAGTTTTCTCTGCCTGCAGTCCGCATGCCGTGGGACCCCTTGGGTTCTAACCTGTTGCCTAGATTTATGCAGCGGACTGCCTTTCTCCCAAAGTGATAAACCGG…AGGTTGGTTTCACT; site = the 11-nt donor
# How it was run: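 The measure is log10(CPM+1) for recombinant UMIs. These were PCR-amplified across the donor–target junction and sequenced after Escherichia coli carrying a donor and donor-binding-loop pair library and a target plasmid with T7-inducible IS621 bridge recombinase was plated on IPTG (0.07 mM) plus kanamycin or unselected. CPM were averaged over two replicates and scaled by control-derived factors.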
# 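Further: IS621 bridge recombinase in Escherichia coli cells against a fixed T5 target plasmid.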
row,Sequence,recombinant UMI read abundance (log10)
1,CACGGCCCATGGACCGGTTTTCCCGGTAATCCGTATTTGTA (site CACGGCCCTCA),0.0202
2,CCCACATCATGGACCGGTTTTCCCGGTAATCCGTATTTGTC (site CCCATATCTGA),0
3,AATAATGCATGGACCGGTTTTCCCGGTAATCCGTATTTGGA (site AATCATGCTTC),0.217
4,ATATAGGCATGGACCGGTTTTCCCGGTAATCCGTATTTGGC (site ATGTAGGCTGC),1.08
5,GGGCTGGCATGGACCGGTTTTCCCGGTAATCCGTATTTGAC (site GGGCTGGCTGT),0.6
6,AATAGACCATGGACCGGTTTTCCCGGTAATCCGTATTTGAT (site AATAGACCTAT),0
7,CGGACTTCATGGACCGGTTTTCCCGGTAATCCGTATTTGCT (site CGGACCTCTAG),1.61
8,CGGACATCATGGACCGGTTTTCCCGGTAATCCGTATTTGAT (site CGGACATCTAA),0.359
9,CCGTTAGCATGGACCGGTTTTCCCGGTAATCCGTATTTGTG (site CTGTTAGCTCA),0.164
10,ACAGTGTCATGGACCGGTTTTCCCGGTAATCCGTATTTGCC (site ACAGTGTCTGG),2.88
11,TTAGAACCATGGACCGGTTTTCCCGGTAATCCGTATTTGCA (site TTAGAACCTTG),0
12,CACGGCCCATGGACCGGTTTTCCCGGTAATCCGTATTTGGT (site CACGGCCCTAC),0.00703
13,CCCTTATCATGGACCGGTTTTCCCGGTAATCCGTATTTGTC (site CCCGTATCTGA),0
14,TCCAATCCATGGACCGGTTTTCCCGGTAATCCGTATTTGCC (site TCCAATACTGG),0
15,CGGGAGTCATGGACCGGTTTTCCCGGTAATCCGTATTTGCT (site CGGGAGTCTGG),2.26
16,GCATGCACATGGACCGGTTTTCCCGGTAATCCGTATTTGTA (site GTATGCACTTA),1.01
17,CGTGGAGCATGGACCGGTTTTCCCGGTAATCCGTATTTGTT (site CGTGGACCTAA),0.00893
18,GTCCCCGCATGGACCGGTTTTCCCGGTAATCCGTATTTGAG (site GTCCCCGCTCT),0.468
19,GAATAGACATGGACCGGTTTTCCCGGTAATCCGTATTTGCC (site GGATAGACTGG),1.44
20,ACTAGTGCATGGACCGGTTTTCCCGGTAATCCGTATTTGGT (site ACTAGGGCTAC),0.0226
21,GGTGACCCATGGACCGGTTTTCCCGGTAATCCGTATTTGCA (site GGTGACCCTTG),0.706
22,CACTCAGCATGGACCGGTTTTCCCGGTAATCCGTATTTGCC (site CACTCAGCTGG),2.5
23,TAGAATGCATGGACCGGTTTTCCCGGTAATCCGTATTTGCA (site TAGAATGCTTG),2.71
24,ACACGAGCATGGACCGGTTTTCCCGGTAATCCGTATTTGTC (site ACACGAGCTGA),2.61
25,GTAGATACATGGACCGGTTTTCCCGGTAATCCGTATTTGCC (site GTAGATACTGG),0

row,Sequence,recombinant UMI read abundance (log10)
1,ATAACGCCATGGACCGGTTTTCCCGGTAATCCGTATTTGAC (site ATAAAGCCTGT),0
2,ACACATCCATGGACCGGTTTTCCCGGTAATCCGTATTTGAA (site ACACATCCTGT),0
3,TAGAATTCATGGACCGGTTTTCCCGGTAATCCGTATTTGCA (site TAGAATACTTG),0.907
4,TGTTCCCCATGGACCGGTTTTCCCGGTAATCCGTATTTGGA (site TGTTCCCCTTC),0.128
5,AGGAAGACATGGACCGGTTTTCCCGGTAATCCGTATTTGCA (site ATGAATACTTG),0
6,ATGTATGCATGGACCGGTTTTCCCGGTAATCCGTATTTGGC (site ATGTAGGCTGC),0.86
7,TGCTCACCATGGACCGGTTTTCCCGGTAATCCGTATTTGTA (site TGCTCACCTTA),0.0115
8,GTTAGATCATGGACCGGTTTTCCCGGTAATCCGTATTTGGC (site GTTAGATCTGC),1.92
9,ATAGCTGCATGGACCGGTTTTCCCGGTAATCCGTATTTGTG (site TTAGCTGCTCA),0.0149
10,CTCACTACATGGACCGGTTTTCCCGGTAATCCGTATTTGAG (site CTCTCTACTCT),0
11,GAAGATCCATGGACCGGTTTTCCCGGTAATCCGTATTTGTT (site GAAGATACTAA),0.0059
12,ATAGGACCATGGACCGGTTTTCCCGGTAATCCGTATTTGCT (site ATAGGACCTAG),0
13,TAGAATGCATGGACCGGTTTTCCCGGTAATCCGTATTTGCA (site TAGAATCCTTG),0.762
14,GCGAATGCATGGACCGGTTTTCCCGGTAATCCGTATTTGGA (site GCGAATGCTTC),1.42
15,TCATACACATGGACCGGTTTTCCCGGTAATCCGTATTTGCA (site TCATACTCTTG),1.5
16,CGTAATACATGGACCGGTTTTCCCGGTAATCCGTATTTGGC (site CTTAATACTGC),0
17,CGCCGTACATGGACCGGTTTTCCCGGTAATCCGTATTTGCG (site CGCCGTACTAG),0
18,GAGCTCACATGGACCGGTTTTCCCGGTAATCCGTATTTGTT (site GAGCTCACTAG),2.34
19,GCTGGGACATGGACCGGTTTTCCCGGTAATCCGTATTTGTG (site GCTGGGACTCA),0.944
20,AGCTCCGCATGGACCGGTTTTCCCGGTAATCCGTATTTGCG (site AGCTCCGCTCG),0.271
21,GCCTCCGCATGGACCGGTTTTCCCGGTAATCCGTATTTGAG (site GCCTCCGCTCT),0.364
22,CTCCCTACATGGACCGGTTTTCCCGGTAATCCGTATTTGAG (site CTCCCTACTCC),0.0101
23,TGTGGCTCATGGACCGGTTTTCCCGGTAATCCGTATTTGCT (site TGTGGCTCTAG),1.33
24,CACTTGGCATGGACCGGTTTTCCCGGTAATCCGTATTTGGA (site CACTTGGCTAC),0.013
25,AGTTCTGCATGGACCGGTTTTCCCGGTAATCCGTATTTGTT (site AGTTCTGCTAA),0.0478

row,Sequence,recombinant UMI read abundance (log10)
1,TGGTTCGCATGGACCGGTTTTCCCGGTAATCCGTATTTGGA (site TGGTTCGCTTC),0.00761
2,GAGCCTTCATGGACCGGTTTTCCCGGTAATCCGTATTTGGT (site AAGCCTTCTAC),0.678
3,AGAACTACATGGACCGGTTTTCCCGGTAATCCGTATTTGAC (site AGAACTACTGT),2.15
4,GAGACGGCATGGACCGGTTTTCCCGGTAATCCGTATTTGAG (site GAGACGGCTCT),0.892
5,GGGCCAACATGGACCGGTTTTCCCGGTAATCCGTATTTGTA (site GGTCCAACTTA),0.0061
6,GCGGAGGCATGGACCGGTTTTCCCGGTAATCCGTATTTGTG (site GAGGAGGCTCA),0.367
7,TCAGACTCATGGACCGGTTTTCCCGGTAATCCGTATTTGCA (site TCAAACTCTTG),0.771
8,GCATCTACATGGACCGGTTTTCCCGGTAATCCGTATTTGTG (site CCATCTACTCA),0.104
9,AATCAACCATGGACCGGTTTTCCCGGTAATCCGTATTTGGT (site AATCAACCTAC),0.00613
10,TAATGACCATGGACCGGTTTTCCCGGTAATCCGTATTTGGG (site TAATGAACTCC),0.00176
11,ACATCTCCATGGACCGGTTTTCCCGGTAATCCGTATTTGTG (site ACATCTGCTCA),0.0416
12,AGAGTCACATGGACCGGTTTTCCCGGTAATCCGTATTTGAG (site AGAGTCACTCT),2.34
13,GGTACGTCATGGACCGGTTTTCCCGGTAATCCGTATTTGTT (site GGTACTTCTAA),0
14,GTTCGAACATGGACCGGTTTTCCCGGTAATCCGTATTTGCA (site GTTCGACCTTG),0
15,CACTTGGCATGGACCGGTTTTCCCGGTAATCCGTATTTGGA (site CTCTTGGCTTC),0.0309
16,TAGAATGCATGGACCGGTTTTCCCGGTAATCCGTATTTGCA (site TAGAATTCTTG),0.905
17,TTGGTAACATGGACCGGTTTTCCCGGTAATCCGTATTTGAG (site TTGGTAACTCT),0.734
18,AGGAAGACATGGACCGGTTTTCCCGGTAATCCGTATTTGCA (site TGGATGACTTG),0.00459
19,TCCTAGACATGGACCGGTTTTCCCGGTAATCCGTATTTGGG (site TCCTAGACTCC),0.00458
20,GGTCCACCATGGACCGGTTTTCCCGGTAATCCGTATTTGTA (site GGTCCAGCTTA),0.0357
21,CTCGGTCCATGGACCGGTTTTCCCGGTAATCCGTATTTGCA (site CGCGGTCCTTG),0.00731
22,CAGGTCACATGGACCGGTTTTCCCGGTAATCCGTATTTGGG (site CAAGTCACTCC),0.0193
23,CCGTTTGCATGGACCGGTTTTCCCGGTAATCCGTATTTGCT (site CCGTTTTCTAG),0
24,GGATTCGCATGGACCGGTTTTCCCGGTAATCCGTATTTGCG (site GGATTCGCTCG),0.0184
25,CGGGAGTCATGGACCGGTTTTCCCGGTAATCCGTATTTGCT (site CGGGAGTCTTG),1.47
